Turning to `CCC1(CCCCN2CCN(c3cccc(Cl)c3)CC2)C(=O)Nc2cc(F)ccc21` (stereo unspecified), the melting point lay within 116 to 117 °C.

As for `CCOC(=O)CNC(=O)Nc1cnc(Nc2ccc(Cl)c(Cl)c2)nc1NC`, the melting point turned out to be 304 °C. The result for `CCn1ncc2cc3c(nc21)CCc1ccccc1C3(O)CCCN(C)C` (stereo unspecified) reads 100 to 102 °C. Turning to `NC(=O)c1c(I)cc(I)c(C(N)=O)c1I`, the melting point lay within 245 to 248 °C. The same measure for `O=C(Nc1cc(Cl)c(Cl)c(Cl)c1)c1cc(Br)ccc1O`: 297 to 299 °C; for `COC1(c2cccc(S(=O)(=O)c3ccc4c(c3)C(C)(C)S(=O)(=O)C4(C)C)c2)CCOCC1`: 115 °C; for `Cc1ccn2cc(CN3CCN(c4ccc(C(N)=O)cc4)CC3)nc2c1`: 217 to 218 °C.

For the molecule `CCCCCCCCCCCCCCCCCC(=O)n1cc(F)c(=O)n(C(=O)c2ccccc2)c1=O`, the melting point is 85 °C. In turn, `CC(C)(C)OC(=O)CN1C(=O)[C@@H](N[C@@H](CCCCNC(=O)OC(C)(C)C)C(=O)O)CSc2ccccc21` came in with a melting point of 134 to 135 °C. On to `CCOC(=O)c1cnoc1-c1ccc(Cl)c(F)c1`, for which the melting point was in the range of 76 to 77 °C. The same measure for `CCOc1cc2c(cc1OC)CCN(c1nc(N)c3cc(OC)c(OC)cc3n1)C2`: 258 to 260 °C. Regarding `CCC(C#N)Oc1nc2cc(OC)cc(OC)c2cc1-c1ccc(OC)cc1` (stereo unspecified), the melting point fell in the range of 89 to 90 °C. Regarding `CCn1nc(OCCCCc2ccc(OC(C)C)cc2Oc2ncc(C(F)(F)F)cc2Cl)cc1CCC(=O)O`, the melting point lay within 129 to 130 °C. Consider `COc1ccc(-c2cc(C3CCCCC3)sc2-c2ccc(OC)cc2)cc1`, for which the melting point was 95 to 98 °C. As to `COc1ccccc1Nc1nc(-c2ccccc2)c(C(=O)c2sc(Nc3ccccc3OC)nc2-c2ccccc2)s1`, the melting point was more than 285 °C.

With `Cc1noc(NS(=O)(=O)c2ccsc2C(=O)Nc2ccccc2)c1Br`, the melting point lay within 168 to 170 °C.

Molecule `COC(=O)c1cc(-c2ccc(C)cc2)c(O)c(C(C)(C)C)c1` had a melting point of 105 °C. The molecule `COC(=O)c1ccc(C(=O)N2CCN(c3ncccc3[N+](=O)[O-])CC2)cc1` registered a melting point of 149 to 152 °C. The result for `Cc1ccc(NC(=S)NCCCO)c(C)c1` reads 90 to 93 °C; that for `Nc1ccnc(CCl)n1`, 125 to 128 °C. `CNc1cc(NC)cc(C(=O)CS(C)(=O)=O)c1` came in with a melting point of 144 to 146 °C. The same measure for `O=C(c1ccccc1)C1CCCS1(=O)=O` (stereo unspecified): 90 to 94 °C; for `COc1ccc([N+](=O)[O-])c(CC#N)n1`: 116 to 117 °C; for `CCOC(=O)Cc1ccc(S(=O)(=O)C2CC2)cc1`: 102 to 104 °C. `Cc1nn(-c2ccccn2)cc1COc1ccc(COc2ncccc2CC#N)cc1`: the melting point lay in the range of 138 to 139 °C. Molecule `N#Cc1ccc(Cn2c3cc(O)c(O)cc3c3c(Br)cc(O)c(O)c32)cc1` showed a melting point of more than 260 °C.

On to `CC1(C)C=C(N2CCCC2=O)c2cc(Cl)ccc2O1`, for which the melting point was in the range of 123 to 125 °C. Take `O=C(Nc1ccc(CCN2C(=O)C3CCCC3=Nc3ccccc32)cc1)OCc1ccccc1` (stereo unspecified): the melting point fell in the range of 103 to 105 °C.

For the molecule `O=C(O)c1cn(-c2ccc(F)cc2)c(-c2ccc(Cl)cc2)cc1=O`, the melting point lay within 199 to 204 °C. The result for `COc1ccc2cccnc2c1O` reads 113 to 115 °C; that for `Cc1cn(S(=O)(=O)c2ccc(=O)[nH]n2)c2ccccc12`, more than 220 °C. For `Cc1cc(Oc2c(F)cc(C(F)(F)F)cc2Cl)nn1C(=O)NCCBr`, the melting point lay within 85 to 86 °C. For the molecule `COc1ccc(C(=NOC(C)=O)c2cc(F)ccc2F)c(O)c1Cl`, the melting point lay within 130 to 131 °C. In turn, `O=C(CN1C(=O)c2ccccc2C1=O)Nc1ccccc1C(=O)N1CCCc2ccccc21` gave a melting point of 130 °C.

In turn, `COc1ccc(C(=O)Nc2cc(NC(=O)c3cccc(O)c3)ccc2C)cc1OC` displayed a melting point of 182 to 183 °C. Take `O=C(O)Cc1ccc2c(c1)C(=O)c1cc(C(F)(F)F)ccc1CO2`: the melting point lay in the range of 152 to 155 °C.

Molecule `c1ccc2c(N3CCNCC3)nsc2c1` came in with a melting point of 88 to 90 °C.

On to `CN(C)C=C(C#N)CNC=O`, for which the melting point is 90 °C. `CCCN(CCC)C(=O)COc1nc(-c2ccc(F)cc2)nc2c1CCCC2` yielded a melting point of 95 to 96 °C. The result for `CN1CCC(OC(=O)C(C)(c2ccc(O)cc2)C2CCCC2)CC1` (stereo unspecified) reads 128 to 130 °C. `CN(C(=O)NCC(=O)O)[C@H]1O[C@H](c2ccccc2Cl)c2cc(Cl)ccc2N(Cc2ccccc2)C1=O` (relative stereo) yielded a melting point of 153 to 155 °C. Regarding `CS(=O)(=O)c1ccc(-c2cnn(CC(F)(F)F)c(=O)c2-c2ccc(S(C)(=O)=O)cc2)cc1`, the melting point was in the range of 212 to 213 °C. Consider `CN1Cc2c(C(N)=S)ncn2-c2cccc(Cl)c2C1=O`, for which the melting point is 300 to 302 °C.

For the molecule `Cn1ncc(C(=O)O)c1C(=O)Nc1ccc2nc(N3CCOCC3)nn2c1`, the melting point is 294 °C. In turn, `CC1=Nc2ccc(CO)cc2C(=O)C1` displayed a melting point of 249 to 252 °C.

Molecule `Cc1ccc2nc(-c3ccc([N+](=O)[O-])cc3)c(CNC(=O)CC(C)C)n2c1` displayed a melting point of 221 to 222 °C. The molecule `CCc1nc2ccc3c(c2nc1CC)OC(COS(=O)(=O)c1ccc(C)cc1)CO3` (stereo unspecified) had a melting point of 132 to 135 °C.

The molecule `Cc1ccc(C(=O)Nc2ccc(CCc3ccc(O)c(O)c3)cc2)c(O)c1` returned a melting point of 201 to 202 °C. Regarding `COC(=O)C1CCC(C(=O)Nc2sc3c(c2C(=O)NCc2ccc4c(c2)OCO4)CCCC3)CC1` (stereo unspecified), the melting point was determined as 173 °C. For the molecule `CC(C)CC(=O)Nc1ccc2oc3c(c2c1)CCCC3`, the melting point is 154 to 157 °C. Molecule `CCOC(=O)Cn1nc(-c2ccc(OC)cc2)cc(C(=O)OCC)c1=O` registered a melting point of 77.1 to 77.8 °C.

Regarding `CN1C[C@@H]2C[C@H]1CN2c1cc2c(cc1F)c(=O)c(C=O)cn2C1CC1`, the melting point was 274 to 275 °C. The same measure for `O=c1[nH]nccc1NCCCNCCOc1cccc2c1OCCO2`: 118 to 120 °C; for `CN(C)CCC1Cc2ccccc2C(C)(O)c2ccccc21` (stereo unspecified): 162 °C; for `O=C(O)CCCOc1cccc(CCCCCCOc2ccc3c(c2CCCc2ccccc2)OCCC3=O)c1CCC(=O)O`: 104 to 106 °C. Molecule `OC1CSC(Oc2ccnc(-c3cccnc3)c2)C(O)C1O` (stereo unspecified) returned a melting point of 197 °C. The molecule `CC#CCOc1ccc(S(=O)(=O)C(C(=O)NO)c2ccc(Cl)cc2)cc1` (stereo unspecified) returned a melting point of 140 °C. `Cc1cc2oc(=O)c3c(c2cc1C)CCNC3` gave a melting point of 173 to 175 °C. Turning to `COc1cccc(CNc2ccc(C(C)=O)cc2)c1OCCCC(=O)O`, the melting point fell in the range of 85 to 95 °C. `O=C(NCc1ccc(Cl)cc1)c1ccc2sc(CN3CCOCC3)cc2c1O`: the melting point worked out at 200 °C. Molecule `Cc1ccc(C(=O)Nc2nccc(-c3c(-c4cccc(C)c4)nc4cccnn34)n2)cc1` had a melting point of 211 to 212 °C. In turn, `Clc1nc(C(Cl)(Cl)Cl)nc2ccc(I)cc12` gave a melting point of 154 to 155 °C. For `CN(C)S(=O)(=O)c1cc(-c2csc(=Nc3ccc4c(c3)OCCO4)n2C)ccc1Cl`, the melting point fell in the range of 200 to 203 °C. The molecule `COc1cc(CO)ccc1OCc1sc(-c2ccccc2)nc1C` registered a melting point of 152 to 153 °C.

Consider `CCc1c(-c2ccc(OCc3ccccc3)cc2)c2cc(C(=O)OC)c3c(NC(C)=O)ccc1n23`, for which the melting point was in the range of 210 to 213 °C. `CCCCCCc1cc(C(=O)OCC)c(-c2ccccc2)c(-c2ccccc2)c1C(=O)OCC` displayed a melting point of 119 to 121 °C. Molecule `Cc1nc(OCCN2CCOCC2)c([N+](=O)[O-])c(N2CCc3ccccc3CC2)n1` yielded a melting point of 143 to 145 °C. `CCCCS(=O)(=O)Nc1cccc(Oc2cccc3cccnc23)c1` came in with a melting point of 107 to 108 °C. `CC=CCC1C(=O)c2cc(OC)c(Cl)cc2C1(C)C` (racemic) yielded a melting point of 86 °C.

`CC(C)(C)[Si](C)(C)OCCCn1ccc2c3c(c(-c4ccccc4Cl)cc21)C(=O)NC3=O` yielded a melting point of 158 to 160 °C. Turning to `CCN(CC)C(=O)c1cc([N+](=O)[O-])cnc1CBr`, the melting point lay within 62 to 64 °C. Molecule `CCCn1cnc2nc(-c3ccc(Cl)cc3)nn2c1=S` yielded a melting point of 214 to 216 °C. `O=S(=O)(c1ccccc1)c1ccc2cnc(Nc3ccc(N4CCOCC4)cc3)nn12`: the melting point fell in the range of 110 to 115 °C. The molecule `CCN1C(=O)COc2ccc(-c3sc(N)nc3-c3cccc(C)n3)cc21` showed a melting point of 228 to 230 °C.

Take `Nc1nc2cc(OCC(=O)N3CCOCC3)ccc2c2c1nc1n2CCOC1`: the melting point was 204 to 206 °C. The result for `NS(=O)(=O)OCCOc1cccc(OCCOS(N)(=O)=O)c1` reads 147 to 149 °C; that for `Cc1nnsc1C(=O)Nc1ccc(-n2nc(C3CC3)cc2C2CC2)c(F)c1`, 148 to 152 °C; that for `CCOC(=O)C1=C(C)NC(=O)N(C(=O)OCC)C1c1ccccc1C(F)(F)F` (stereo unspecified), 161 to 163 °C.

Consider `Cc1ccc(C(=O)n2c3c(c4ccccc42)C(C(=O)O)CCC3)cc1` (stereo unspecified), for which the melting point is 181 to 183 °C. Take `CN1C2CCC1CC(O)(c1ccc(C(F)(F)F)cc1)C2` (stereo unspecified): the melting point lay in the range of 189 to 190 °C.

`CN(C)/C(=C1/Sc2ccccc2C1=O)c1ccccc1`: the melting point fell in the range of 179 to 180 °C. As to `N#Cc1ccc(OCCCCCCOc2ccc(-c3cc4cc(C#N)ccc4o3)cc2)cc1`, the melting point was in the range of 148 to 151 °C.

As for `CCNC(=O)Nc1ccccc1`, the melting point lay within 99 to 100 °C. `CN(C(=O)Nc1nc(OCC(F)(F)F)cc(OCC(F)(F)F)c1F)c1ccc(Br)cc1` came in with a melting point of 89 to 90 °C. As to `C=CCSc1cc(C(=O)O)cc(N=Nc2cc(C(=O)O)cc(SCC=C)c2C(=O)c2ccccc2)c1C(=O)c1ccccc1`, the melting point lay within 162 to 163 °C. In turn, `CC(C)On1c(C(C)(C)C)nc2c(N)nc3ccccc3c21` displayed a melting point of 187 to 189 °C.

Values taken from a melting point compilation (Tetko et al.; mined from patent text by program, amines drawn as free bases though some values may be those of a salt).
